Measurements taken from patent publication US11541056B2, “3-hydroxy-N-(3-(7H-pyrrolo[2,3-d]pyrimidin-4-yl)phenyl)pyrrolidine-1-carboxamide derivatives” (NOVARTIS AG, priority 2018, dated 2023).
Like-named read-outs stand apart in the source and are kept apart here.

Key:
Format in all cases: cell-based
BTK-GFP = target: T1, BTK-GFP (Homo sapiens, UniProt Q06187+Q96SW2); assay: BTK-GFP protein abundance flow cytometry assay in HEK293A cells; settings: 24 h; for BTK deg Amax %: % protein remaining at concentration of maximum degradation; for DC50: concentration at which 50% maximal degradation was observed
T1 construct: the BTK open reading frame (ORF) was first shuttled from a pcDNA-DEST40-BTK vector (Invitrogen library ID INV_20090504v1); expressed in transfected cells; host or cells: HEK293A cells (Invitrogen R70507), lentiviral transduction with pLenti6-BTK-GFP-Ires-RFP, blasticidin-selected
T1 sequence (Q06187 whole entry): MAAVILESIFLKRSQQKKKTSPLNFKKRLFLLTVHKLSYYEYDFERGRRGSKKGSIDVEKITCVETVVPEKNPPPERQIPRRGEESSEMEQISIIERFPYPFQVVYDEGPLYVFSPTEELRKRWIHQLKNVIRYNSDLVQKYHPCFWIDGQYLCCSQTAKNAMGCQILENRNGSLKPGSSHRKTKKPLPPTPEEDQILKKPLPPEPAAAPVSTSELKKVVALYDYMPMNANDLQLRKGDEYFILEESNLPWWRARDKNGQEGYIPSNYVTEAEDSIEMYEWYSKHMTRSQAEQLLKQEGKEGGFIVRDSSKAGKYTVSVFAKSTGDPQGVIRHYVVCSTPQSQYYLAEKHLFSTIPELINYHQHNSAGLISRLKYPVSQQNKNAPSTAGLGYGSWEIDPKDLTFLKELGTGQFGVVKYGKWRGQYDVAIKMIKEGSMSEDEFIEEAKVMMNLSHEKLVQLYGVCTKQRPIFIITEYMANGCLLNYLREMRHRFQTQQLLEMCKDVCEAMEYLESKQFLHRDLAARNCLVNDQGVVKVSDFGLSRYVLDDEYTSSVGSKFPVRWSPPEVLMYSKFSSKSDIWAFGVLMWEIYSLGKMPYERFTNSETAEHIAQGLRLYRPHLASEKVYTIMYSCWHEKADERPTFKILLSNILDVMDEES
T1 sequence (Q96SW2 whole entry): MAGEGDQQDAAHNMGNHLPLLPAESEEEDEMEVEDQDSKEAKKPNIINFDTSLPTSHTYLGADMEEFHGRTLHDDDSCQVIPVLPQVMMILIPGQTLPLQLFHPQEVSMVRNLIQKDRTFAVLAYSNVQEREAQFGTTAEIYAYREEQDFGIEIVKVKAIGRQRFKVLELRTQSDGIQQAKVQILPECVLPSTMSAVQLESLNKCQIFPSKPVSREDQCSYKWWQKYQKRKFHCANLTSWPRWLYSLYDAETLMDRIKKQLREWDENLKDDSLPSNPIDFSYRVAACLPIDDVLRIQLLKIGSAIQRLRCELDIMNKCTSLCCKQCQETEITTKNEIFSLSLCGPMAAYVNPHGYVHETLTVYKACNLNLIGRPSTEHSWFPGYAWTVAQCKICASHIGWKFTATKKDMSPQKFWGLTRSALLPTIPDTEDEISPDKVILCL
T1 sequence (Q16531 whole entry partner): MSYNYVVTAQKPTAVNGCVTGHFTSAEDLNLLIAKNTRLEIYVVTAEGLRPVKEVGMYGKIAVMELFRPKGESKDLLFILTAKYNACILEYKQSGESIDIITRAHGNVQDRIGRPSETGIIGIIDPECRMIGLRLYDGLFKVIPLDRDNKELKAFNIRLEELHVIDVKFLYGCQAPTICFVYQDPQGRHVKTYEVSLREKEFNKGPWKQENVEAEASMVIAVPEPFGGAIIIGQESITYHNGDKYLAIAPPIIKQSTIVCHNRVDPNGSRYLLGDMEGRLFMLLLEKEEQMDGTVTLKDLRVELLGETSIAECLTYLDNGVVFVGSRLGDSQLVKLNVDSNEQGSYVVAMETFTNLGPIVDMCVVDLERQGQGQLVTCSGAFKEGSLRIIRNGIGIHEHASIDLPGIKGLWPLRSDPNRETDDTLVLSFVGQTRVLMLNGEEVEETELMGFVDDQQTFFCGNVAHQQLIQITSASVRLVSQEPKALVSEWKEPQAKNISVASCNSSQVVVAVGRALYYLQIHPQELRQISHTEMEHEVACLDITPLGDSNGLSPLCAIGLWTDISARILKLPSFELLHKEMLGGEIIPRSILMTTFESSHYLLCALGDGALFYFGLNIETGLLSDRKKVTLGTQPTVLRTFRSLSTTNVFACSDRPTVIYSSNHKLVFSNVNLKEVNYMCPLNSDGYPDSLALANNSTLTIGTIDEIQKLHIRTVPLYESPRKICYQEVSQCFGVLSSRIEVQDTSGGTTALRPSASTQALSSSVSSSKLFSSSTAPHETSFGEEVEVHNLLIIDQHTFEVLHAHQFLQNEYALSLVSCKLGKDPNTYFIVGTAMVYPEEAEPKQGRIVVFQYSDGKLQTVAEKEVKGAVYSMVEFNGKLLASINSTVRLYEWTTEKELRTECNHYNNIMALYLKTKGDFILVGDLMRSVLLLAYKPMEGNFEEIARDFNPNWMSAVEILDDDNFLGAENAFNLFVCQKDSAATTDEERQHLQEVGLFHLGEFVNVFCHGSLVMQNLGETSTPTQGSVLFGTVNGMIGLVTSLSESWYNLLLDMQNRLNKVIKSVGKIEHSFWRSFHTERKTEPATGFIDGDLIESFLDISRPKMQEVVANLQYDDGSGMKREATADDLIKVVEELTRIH
Procedure: (§1) Compounds of the invention were tested in the following cellular assays. The terms in Table 1 are defined as follows: DC50 refers to the concentration at which 50% maximal degradation was observed; deg Amax is the extent of degradation and the value refers to the % protein remaining at the concentration at which maximum degradation is seen; Prol GI50 refers to the proliferation data and defines the concentration at which 50% growth inhibition was observed compared to the vehicle treated control at the end of the incubation time. TMD8 cells are BTK dependent and OCI-LY3 cells are BTK independent.
BTK-GFP and IKZF3-GFP Protein Abundance Flow Cytometry Assay in HEK293A Cells:
Degradation of BTK or IKZF3 was measured in HEK293A cells (Invitrogen R70507) expressing either BTK-GFP and RFP or IKZF3-GFP and RFP from a stably integrated bicistronic BTK-GFP-iresRFP or IKZF3-GFP-iresRFP construct, respectively. Reduction of the GFP signal measured by flow cytometry served as readout for BTK or IKZF3 degradation after degrader treatment.
Stable HEK293A-BTK-GFP-iresRFP cells were maintained in complete growth medium (DMEM high Glucose+10% FCS+1% L-Glutamine+1% NEAA+1% NaPyr.) with passaging performed twice per week. On Day 0, HEK293A-BTK-GFP-iresRFP or HEK293A-IKZF3-GFP-iresRFP and HEK293A-iresRFP cells were seeded at 10,000 cells/well in a 96-well microtiter plate in 260 μl complete medium. On Day 1, cells were treated in duplicate with 10-point 1:3 dilution series of compound using the HP D300 Digital Dispenser (Tecan). DMSO concentrations were normalized across the plate to 0.1%. On Day 2, after 24 h of incubation at 37° C., treatment media was discarded, cells rinsed with 100 ul/well PBS and then detached using 40 ul trypsin/well for 5 min. Trypsin was neutralized with 100 ul/well PBS+20% FCS). Flow cytometry was performed on the samples using the BD FACS CANTO II (Becton Dickinson). Cell identification was then performed using forward (FSC) vs. side scatter (SSC) plots. Single cell discrimination is performed using SSC-Width (SSC-W) vs. SSC-Height (SSC-H) plots. Median GFP values for 5,000 single cells are used to determine BTK levels. Median GFP values from HEK293A-iresRFP are used as a background signal and thus defining 0% BTK signal. Median GFP values from DMSO treated HEK293A-BTK-GFP-iresRFP or HEK293A-IKZF3-GFP-iresRFP are used to define 100% BTK signal for subsequent DC50 curves (concentration at 50% BTK degradation). GFP and RFP are read in the channels called FITC and PE, respectively.
Concentration response curves plotting relative reduction of the GFP signal (measured by flow cytometry) versus 10 compound concentrations (starting concentration 10 μM, 3 fold dilution steps) of the compounds allowed generation of DC50 values.

TMD8 cells = assay: Resazurin cell viability assay in DLBCL cells (TMD8); settings: TMD8 cells (BTK dependent), 50% growth inhibition, read-out: TMD8 Prol GI50
Procedure: as §1
(§2) Cell Viability Assay in DLBCL (Diffuse Large B-Cell Lymphoma) Cells:
(§3) The effect of the BTK compounds on cell proliferation was measured by a Resazurin (Sigma, #R7017) based cell viability assay. TMD8 (BTK compound sensitive) and OCI-LY3 (BTK compound insensitive) cells were incubated for 72 h at 37° C. and 5% CO2 with the corresponding compound. Resazurin is a non-toxic, cell-permeable substrate that is virtually non-fluorescent. Upon entering living cells, Resazurin (Sigma, #R7017) is reduced to highly fluorescent Resorufin. The metabolic activity was assessed by measuring the fluorescence signal (ex. 530 nm; em. 600 nm).
(§4) TMD8 and OCI-Ly3 cells were seeded at day 0 in triplicates at a cell density of 1×10^4 cells per 150 μl/well in a 96-well plate (Costar #3904). Additional plates were prepared, in order to assess the basal metabolic activity of both cell lines at the beginning of the experiment. For these reference plates, Resazurin (Sigma, #R7017) was added to a final concentration of 13 μg/ml 3 h post seeding and was incubated for 2 h at 37° C. and 5% CO2. Following incubation, the fluorescent signal intensity of the 96-well plates was measured on a Mithras LB940 multimode plate reader at 530/600 nm (Berthold Technologies, Germany).
(§5) In parallel, 3 h post-seeding, test-plates were treated with compound at various concentrations, or with vehicle (DMSO) alone for 3 days. The compound addition to the plates was performed by using a HP D300 digital dispenser (TECAN, Switzerland). The compounds were tested in triplicate, 8-point serial dilution (1:4), with a start concentration of 10 μM for OCI-LY3 and 1 μM for the TMD8 cells, respectively. To assess the relative proliferation of the cells, Resazurin was added to each well directly to the medium to a final concentration of 13 μg/ml. The plates were incubated for 2 h at 37° C. and 5% CO2 to result in a 72 h endpoint. Following incubation, the fluorescent signal intensity of the 96-well plates were measured on a Mithras LB940 multimode plate reader at 530/600 nm (Berthold Technologies, Germany). The formation of Resorufin dye directly correlates with the number of metabolically active cells. For each triplicate treatment the mean and standard deviation were calculated and analyzed via curve fitting software to determine the respective compound concentration resulting in 50% growth inhibition (GI50) values. For each compound GI50 values were typically determined from at least 2 entirely independent experiments.
TMD8 cells were acquired through a license agreement with Tokyo Medical and Dental University, Japan. Cells are cultivated in MEM Alpha (BioConcept, #1-23F01-I, lot. LB04262P) supplemented with 10% FCS (HyClone, GE #SH30066.03, lot AB217603), 2 mM L-Glutamine (BioConcept, #5-10K50-H, lot. LA03467P), 1% Pen/Strep (BioConcept, #4-01F00-H, lot. LB04235P).

OCI-LY3 cells = assay: Resazurin cell viability assay in DLBCL cells (OCI-LY3); settings: OCI-LY3 cells (BTK independent), 50% growth inhibition, read-out: OCI-LY3 Prol GI50
Procedure: as §1, §2, §3, §4, §5
OCI-LY3 cells were acquired through a license agreement with University Health Network, Toronto, Canada. Cells are cultivated in RPMI1640 media (Gibco, #61870-010, lot. 1894759), supplemented with 10% FCS (HyClone, GE #SH30066.03, lot AB217603), 2 mM L-Glutamine (BioConcept, #5-10K50-H, lot. LA03467P), 1 mM Sodium Pyruvate (BioConcept, #5-60F00-H, lot. LB10510P), 10 mM HEPES (Gibco, #15630-056, lot. 1854074), 1% Pen/Strep (BioConcept, #4-01F00-H, lot. LB04235P).

SMILES	BTK deg Amax % (BTK-GFP) [%]	DC50 (BTK-GFP) [nM]	GI50 (OCI-LY3 cells; Homo sapiens, OCI-Ly3, 72 h) [nM]	GI50 (OCI-LY3 cells; 72 h) [nM]	GI50 (TMD8 cells; Homo sapiens, TMD8, 72 h) [nM]	GI50 (TMD8 cells; 72 h) [nM]
COc1ccc(C(=O)N2CCC(CN3CCN(Cc4ccc(-c5cc6c(-c7cc(F)cc(NC(=O)N8CC(O)C(CC(C)C)C8)c7C)ncnc6[nH]5)cc4)CC3)CC2)cc1N1CCC(=O)NC1=O (racemic) [Compound 9, (cis-rac)-N-(3-(6-(4-((4-((1-(3-(2,4-Dioxotetrahydropyrimidin-1 (2H)-yl)-4-methoxybenzoyl)piperidin-4-yl)methyl)piperazin-1-yl)methyl)phenyl)-7H-pyrrolo[2,3-d]pyrimidin-4-yl)-5-fluoro-2-methylphenyl)-3-hydroxy-4-isobutylpyrrolidine-1-carboxamide]	6.3	1.7	7150		0.75	
COc1ccc(C(=O)N2CCC3(CCN(Cc4ccc(-c5cc6c(-c7cc(F)cc(NC(=O)N8CC(O)C(CC(C)C)C8)c7C)ncnc6[nH]5)cc4)CC3)CC2)cc1N1CCC(=O)NC1=O (racemic) [Compound 23, (cis-rac)-N-(3-(6-(4-((9-(3-(2,4-Dioxotetrahydropyrimidin-1(2H)-yl)-4-methoxybenzoyl)-3,9-diazaspiro[5.5]undecan-3-yl)methyl)phenyl)-7H-pyrrolo[2,3-d]pyrimidin-4-yl)-5-fluoro-2-methylphenyl)-3-hydroxy-4-isobutylpyrrolidine-1-carboxamide]	3.3	6.1		> 10000		2.36
CCOc1ccc(C(=O)N2CCC3(CCN(CCc4ccc(-c5cc6c(-c7cc(F)cc(NC(=O)N8C[C@H](CC(C)C)[C@@H](O)C8)c7C)ncnc6[nH]5)cc4)CC3)CC2)cc1N1CCC(=O)NC1=O [Compound 16, (3R,4S)—N-(3-(6-(4-(2-(9-(3-(2,4-dioxotetrahydropyrimidin-1(2H)-yl)-4-ethoxybenzoyl)-3,9-diazaspiro[5.5]undecan-3-yl)ethyl)phenyl)-7H-pyrrolo[2,3-d]pyrimidin-4-yl)-5-fluoro-2-methylphenyl)-3-hydroxy-4-isobutylpyrrolidine-1-carboxamide]	19	4.7	5220		0.26	

Stronger by DC50 (BTK-GFP), values ahead:

BTK deg Amax % (BTK-GFP) [%]	DC50 (BTK-GFP) [nM]	GI50 (OCI-LY3 cells; Homo sapiens, OCI-Ly3, 72 h) [nM]	GI50 (OCI-LY3 cells; 72 h) [nM]	SMILES	GI50 (TMD8 cells; Homo sapiens, TMD8, 72 h) [nM]	GI50 (TMD8 cells; 72 h) [nM]
1.9	1.5	8220		COc1ccc(C(=O)N2CCC(CCN3CCC(OCc4ccc(-c5cc6c(-c7cc(F)cc(NC(=O)N8CC(O)C(CC(C)C)C8)c7C)ncnc6[nH]5)cc4)CC3)CC2)cc1N1CCC(=O)NC1=O (racemic) [Compound 4, (cis-rac)-N-(3-(6-(4-(((1-(2-(1-(3-(2,4-Dioxotetrahydropyrimidin-1 (2H)-yl)-4-methoxybenzoyl)piperidin-4-yl)ethyl)piperidin-4-yl)oxy)methyl)phenyl)-7H-pyrrolo[2,3-d]pyrimidin-4-yl)-5-fluoro-2-methylphenyl)-3-hydroxy-4-isobutylpyrrolidine-1-carboxamide]	0.34	
3	0.8	4480		COc1ccc(C(=O)N2CCC(CCN3CCC(Oc4ccc(-c5cc6c(-c7cc(F)cc(NC(=O)N8C[C@H](CC(C)C)[C@@H](O)C8)c7C)ncnc6[nH]5)cc4)CC3)CC2)cc1N1CCC(=O)NC1=O [Compound 3, (3R,4S)—N-(3-(6-(4-((1-(2-(1-(3-(2,4-Dioxotetrahydropyrimidin-1(2H)-yl)-4-methoxybenzoyl)piperidin-4-yl)ethyl)piperidin-4-yl)oxy)phenyl)-7H-pyrrolo[2,3-d]pyrimidin-4-yl)-5-fluoro-2-methylphenyl)-3-hydroxy-4-isobutylpyrrolidine-1-carboxamide]	0.19	
3.7	1.5	> 10000		COc1ccc(C(=O)N2CCC3(CCN(CCc4ccc(-c5cc6c(-c7cc(F)cc(NC(=O)N8C[C@@H](CC(C)C)[C@@H](O)C8)c7C)ncnc6[nH]5)cc4)CC3)CC2)cc1N1CCC(=O)NC1=O [Compound 7, (3R,4R)—N-(3-(6-(4-(2-(9-(3-(2,4-Dioxotetrahydropyrimidin-1(2H)-yl)-4-methoxybenzoyl)-3,9-diazaspiro[5.5]undecan-3-yl)ethyl)phenyl)-7H-pyrrolo[2,3-d]pyrimidin-4-yl)-5-fluoro-2-methylphenyl)-3-hydroxy-4-isobutylpyrrolidine-1-carboxamide]	0.28	
3.4	0.7	3820		COc1ccc(C(=O)N2CCC(CN3CCC(COc4ccc(-c5cc6c(-c7cc(F)cc(NC(=O)N8C[C@H](CC(C)C)[C@@H](O)C8)c7C)ncnc6[nH]5)cc4)CC3)CC2)cc1N1CCC(=O)NC1=O [Compound 14, (3R,4S)—N-(3-(6-(4-((1-((1-(3-(2,4-Dioxotetrahydropyrimidin-1 (2H)-yl)-4-methoxybenzoyl)piperidin-4-yl)methyl)piperidin-4-yl)methoxy)phenyl)-7H-pyrrolo[2,3-d]pyrimidin-4-yl)-5-fluoro-2-methylphenyl)-3-hydroxy-4-isobutylpyrrolidine-1-carboxamide]	0.24	
